These results are taken from patent publication US8063098B2, “GlyT1 receptor antagonists” (Hoffmann-La Roche Inc., priority 2008, dated 2011).

The target in this test is T1, mGlyT-1b (Mus musculus, UniProt P28571).
T1 construct: host or cells: Flp-in-CHO
T1 sequence (P28571 1-651 isoform P28571-2): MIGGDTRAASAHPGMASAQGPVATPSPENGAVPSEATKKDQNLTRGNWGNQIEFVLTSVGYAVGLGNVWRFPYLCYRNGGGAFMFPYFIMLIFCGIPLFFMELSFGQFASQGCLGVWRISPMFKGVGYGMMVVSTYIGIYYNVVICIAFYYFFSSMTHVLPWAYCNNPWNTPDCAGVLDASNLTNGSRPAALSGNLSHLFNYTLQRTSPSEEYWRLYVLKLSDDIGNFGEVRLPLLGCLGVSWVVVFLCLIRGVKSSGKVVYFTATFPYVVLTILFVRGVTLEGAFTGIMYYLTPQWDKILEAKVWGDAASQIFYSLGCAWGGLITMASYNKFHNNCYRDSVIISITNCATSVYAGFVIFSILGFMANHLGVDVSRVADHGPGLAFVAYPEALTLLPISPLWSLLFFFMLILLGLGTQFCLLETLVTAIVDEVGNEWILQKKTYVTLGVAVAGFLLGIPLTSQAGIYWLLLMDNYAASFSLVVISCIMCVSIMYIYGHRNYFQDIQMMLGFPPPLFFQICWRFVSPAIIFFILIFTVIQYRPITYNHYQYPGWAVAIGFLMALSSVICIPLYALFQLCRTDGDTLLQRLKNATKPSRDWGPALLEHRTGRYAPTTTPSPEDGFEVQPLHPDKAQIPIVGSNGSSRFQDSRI
Briefly: Glycine uptake inhibition assay (mGlyT-1b), [3H]-glycine uptake in Flp-in-CHO cells. It counts as cell-based. The settings on record: Flp-in-CHO cells stably transfected with mGlyT1b cDNA, 20 min at 22° C. preincubation. On the procedure:
Nutrient mixture F-12 (Gibco Life-technologies), fetal bovine serum (FBS) 5%, (Gibco life technologies), Penicillin/Streptomycin 1% (Gibco life technologies), Hygromycin 0.6 mg/ml (Gibco life technologies), Glutamine 1 mM Gibco life technologies) • Uptake buffer (UB): 150 mM NaCl, 10 mM Hepes-Tris, pH 7.4, […], 2.5 mM KCl, 2.5 mM MgSO4, 10 mM (+) D-glucose. • Flp-in™-CHO (Invitrogen Cat n° R758-07) cells stably transfected with mGlyT1b cDNA. Glycine Uptake Inhibition Assay (mGlyT-1b)
On day 1 mammalian cells, (Flp-in™-CHO), transfected with mGlyT-1b cDNA, were plated at the density of 40,000 cells/well in complete F-12 medium, without hygromycin in 96-well culture plates. On day 2, the medium was aspirated and the cells were washed twice with uptake buffer (UB). The cells were then incubated for 20 min at 22° C. with either (i) no potential competitor, (ii) 10 mM non-radioactive glycine, (iii) a concentration of a potential inhibitor. A range of concentrations of the potential inhibitor was used to generate data for calculating the concentration of inhibitor resulting in 50% of the effect (e.g. IC50, the concentration of the competitor inhibiting glycine uptake of 50%). A solution was then immediately added containing [^3H]-glycine 60 nM (11-16 Ci/mmol) and 25 μM non-radioactive glycine. The plates were incubated with gentle shaking and the reaction was stopped by aspiration of the mixture and washing (three times) with ice-cold UB. The cells were lysed with scintillation liquid, shaken 3 hours and the radioactivity in the cells was counted using a scintillation counter.

As for `COc1cc(C(F)(F)F)cc(SC)c1C(=O)NC(c1cc(F)cc(F)c1)C1(N2CCCC2)CCC1` (stereo not shown) [Example 53], the IC50 is 0.0141 µM.

As for `CSc1cc(C(F)(F)F)cc(C(F)(F)F)c1C(=O)NC(c1ccccc1)C1(N2CCCC2)CCC1` (single isomer, unassigned; (+)) [Example 30, (+)-2-Methylsulfanyl-N-[phenyl-(1-pyrrolidin-1-yl-cyclobutyl)-methyl]-4,6-bis-trifluoromethyl-benzamide], the IC50 turned out to be 0.047 µM.

`O=C(NC(c1ccccc1)C1(N2CCCC2)CCC1)c1ccc(Cl)cc1C(F)(F)F` (stereo not shown) [Example 54]: the half-inhibitory concentration (IC50) is 0.0275 µM.

For the compound `CCc1cc(C(F)(F)F)ccc1C(=O)NC(c1ccccc1)C1(N2CCCC2)CCC1` (stereo not shown) [Example 68, 2-Ethyl-N-[phenyl-(1-pyrrolidin-1-yl-cyclobutyl)-methyl]-4-trifluoromethyl-benzamide], half-maximal inhibition (IC50) was put at 0.0091 µM.

The compound `Cc1cc(C(F)(F)F)ccc1C(=O)NC(c1ccccc1)C1(N2CCCC2)CCC1` (stereo not shown) [Example 41, 2-Methyl-N-[phenyl-(1-pyrrolidin-1-yl-cyclobutyl)-methyl]-4-trifluoromethyl-benzamide] came in with an IC50 of 0.0148 µM.

`O=C(NC(c1ccccc1)C1(N2CCCC2)CCC1)c1ccc(C(F)(F)F)cc1C(F)(F)F` (stereo not shown) [Example 15, N-[Phenyl-(1-pyrrolidin-1-yl-cyclobutyl)-methyl]-2,4-bis-trifluoromethyl-benzamide] displayed an IC50 of 0.0312 µM.

`CSc1cc(C(F)(F)F)cc(C(F)(F)F)c1C(=O)NC(c1ccccc1)C1(N2CCCC2)CCC1` (stereo not shown) [Example 9, 2-Methylsulfanyl-N-[phenyl-(1-pyrrolidin-1-yl-cyclobutyl)-methyl]-4,6-bis-trifluoromethyl-benzamide] came in with an IC50 of 0.0295 µM.

Take `CSc1cc(C(F)(F)F)ccc1C(=O)NC(c1ccccc1)C1(N2CCN(C3CC3)CC2)CCC1` (stereo not shown) [Example 72, N-{[1-(4-Cyclopropyl-piperazin-1-yl)-cyclobutyl]-phenyl-methyl}-2-methylsulfanyl-4-trifluoromethyl-benzamide]: it took 0.0494 µM to reach half-maximal inhibition (IC50).

Turning to `CSc1cc(C(F)(F)F)cc(C(F)(F)F)c1C(=O)NC(c1ccccc1)C1(N2CCCC2)CC1` (single isomer, unassigned; (-)) [Example 29, (−)-2-Methylsulfanyl-N-[phenyl-(1-pyrrolidin-1-yl-cyclopropyl)-methyl]-4,6-bis-trifluoromethyl-benzamide], 0.0509 µM corresponded to half-maximal inhibition (IC50).

The compound `COc1cc(C(F)(F)F)cc(SC)c1C(=O)NC(c1ccccc1)C1(N2CC3(COC3)C2)CCC1` (stereo not shown) [Example 75, 2-Methoxy-6-methylsulfanyl-N-{[1-(2-oxa-6-aza-spiro[3.3]hept-6-yl)-cyclobutyl]-phenyl-methyl}-4-trifluoromethyl-benzamide] displayed an IC50 of 0.0261 µM. Against the preceding compound, the IC50 is about 2-fold lower.

In turn, `COc1cc(C(F)(F)F)cc(SC)c1C(=O)NC(c1ccccc1)C1(N2CCCC2)CCC1` (stereo not shown) [Example 12, 2-Methoxy-6-methylsulfanyl-N-[phenyl-(1-pyrrolidin-1-yl-cyclobutyl)-methyl]-4-trifluoromethyl-benzamide] yielded a 50% inhibitory concentration (IC50) of 0.0112 µM.

As for `COc1cc(C(F)(F)F)cc(C(F)(F)F)c1C(=O)NC(c1ccccc1)C1(N2CCCC2)CCC1` (stereo not shown) [Example 14, 2-Methoxy-N-[phenyl-(1-pyrrolidin-1-yl-cyclobutyl)-methyl]-4,6-bis-trifluoromethyl-benzamide], inhibition was half-maximal at 0.0455 µM (IC50).

`CSc1cc(C(F)(F)F)ccc1C(=O)NC(c1ccccc1)C1(N2CCCC2)CCC1` (single isomer, unassigned; (+)) [Example 35, (+)-2-Methylsulfanyl-N-[phenyl-(1-pyrrolidin-1-yl-cyclobutyl)-methyl]-4-trifluoromethyl-benzamide]: the IC50 was found to be 0.0098 µM.

`CSc1cc(C(F)(F)F)ccc1C(=O)NC(c1ccccc1)C1(N2CC3(COC3)C2)CCC1` (stereo not shown) [Example 74, 2-Methylsulfanyl-N-{[1-(2-oxa-6-aza-spiro[3.3]hept-6-yl)-cyclobutyl]-phenyl-methyl}-4-trifluoromethyl-benzamide] showed an IC50 of 0.0101 µM.

`O=C(NC(c1ccccc1)C1(N2CCCC2)CCC1)c1ccccc1C(F)(F)F` (stereo not shown) [Example 44, N-[Phenyl-(1-pyrrolidin-1-yl-cyclobutyl)-methyl]-2-trifluoromethyl-benzamide] gave an IC50 of 0.0951 µM.

`Cc1cc(Cl)ccc1C(=O)NC(c1ccccc1)C1(N2CCCC2)CCC1` (stereo not shown) [Example 63, 4-Chloro-2-methyl-N-[phenyl-(1-pyrrolidin-1-yl-cyclobutyl)-methyl]-benzamide] displayed an IC50 of 0.0297 µM.

In the case of `O=C(NC(c1ccccc1)C1(N2CCCC2)CCC1)c1ccc(Cl)cc1Cl` (stereo not shown) [Example 43, 2,4-Dichloro-N-[phenyl-(1-pyrrolidin-1-yl-cyclobutyl)-methyl]-benzamide], 0.0669 µM corresponded to half-maximal inhibition (IC50).

For `CSc1cc(C(F)(F)F)cc(C(F)(F)F)c1C(=O)NC(c1ccccc1)C1(N2CCCC2)CC1` (stereo not shown) [Example 6, 2-Methylsulfanyl-N-[phenyl-(1-pyrrolidin-1-yl-cyclopropyl)-methyl]-4,6-bis-trifluoromethyl-benzamide], the IC50 was 0.0683 µM.

As for `CSc1cc(C(F)(F)F)ccc1C(=O)NC(c1cc(F)cc(F)c1)C1(N2CCCC2)CCC1` (stereo not shown) [Example 40, N-[(3,5-Difluoro-phenyl)-(1-pyrrolidin-1-yl-cyclobutyl)-methyl]-2-methylsulfanyl-4-trifluoromethyl-benzamide], the IC50 came out at 0.0322 µM.

In the case of `CSc1cc(C(F)(F)F)ccc1C(=O)NC(c1cccc(F)c1)C1(N2CCCC2)CCC1` (stereo not shown) [Example 55, N-[(3-Fluoro-phenyl)-(1-pyrrolidin-1-yl-cyclobutyl)-methyl]-2-methylsulfanyl-4-trifluoromethyl-benzamide], the IC50 amounted to 0.0139 µM. This IC50 lies about 2.3-fold lower than the previous one.

`COc1cc(C(F)(F)F)cc(SC)c1C(=O)NC(c1ccccc1)C1(N2CCCCC2)CCC1` (stereo not shown) [Example 49, 2-Methoxy-6-methylsulfanyl-N-[phenyl-(1-piperidin-1-yl-cyclobutyl)-methyl]-4-trifluoromethyl-benzamide] yielded an IC50 of 0.0237 µM. Against the preceding compound, the IC50 is about 1.7-fold higher.

For `CSc1cc(C(F)(F)F)cc(O)c1C(=O)NC(c1ccccc1)C1(N2CCCC2)CCC1` (stereo not shown) [Example 69, 2-Hydroxy-6-methylsulfanyl-N-[phenyl-(1-pyrrolidin-1-yl-cyclobutyl)-methyl]-4-trifluoromethyl-benzamide], the IC50 came out at 0.0095 µM.

For `COc1cc(C(F)(F)F)cc(SC)c1C(=O)NC(c1ccccc1)C1(N2CCOCC2)CCC1` (stereo not shown) [Example 60, 2-Methoxy-6-methylsulfanyl-N-[(1-morpholin-4-yl-cyclobutyl)-phenyl-methyl]-4-trifluoromethyl-benzamide], the IC50 worked out at 0.0496 µM.

`COc1cc(C(F)(F)F)cc(SC)c1C(=O)NC(c1cccc(F)c1)C1(N2CCCC2)CCC1` (stereo not shown) [Example 56, N-[(3-Fluoro-phenyl)-(1-pyrrolidin-1-yl-cyclobutyl)-methyl]-2-methoxy-6-methylsulfanyl-4-trifluoromethyl-benzamide] gave an IC50 of 0.0135 µM.

On to `COc1cc(C(F)(F)F)ccc1C(=O)NC(c1ccccc1)C1(N2CCCC2)CCC1` (stereo not shown) [Example 17, 2-Methoxy-N-[phenyl-(1-pyrrolidin-1-yl-cyclobutyl)-methyl]-4-trifluoromethyl-benzamide], for which the midpoint of inhibition, the IC50, lay at 0.0368 µM.

In the case of `CSc1cccc(C(F)(F)F)c1C(=O)NC(c1ccccc1)C1(N2CCCC2)CCC1` (stereo not shown) [Example 13, 2-Methylsulfanyl-N-[phenyl-(1-pyrrolidin-1-yl-cyclobutyl)-methyl]-6-trifluoromethyl-benzamide], half-maximal inhibition (IC50) required 0.034 µM. This IC50 and that of the compound before are within 1.5-fold of each other.

As for `CSc1cc(C(F)(F)F)ccc1C(=O)NC(c1ccccc1)C1(N2CCCC2)CCC1` (stereo not shown) [Example 16, 2-Methylsulfanyl-N-[phenyl-(1-pyrrolidin-1-yl-cyclobutyl)-methyl]-4-trifluoromethyl-benzamide], the 50% inhibitory concentration (IC50) amounted to 0.0134 µM.

Compound `COc1cc(C(F)(F)F)cc(SC)c1C(=O)NC(c1ccccc1)C1(N2CCCC2)CCC1` (single isomer, unassigned; (+)) [Example 33, (+)-2-Methoxy-6-methylsufanyl-N-[phenyl-(1-pyrrolidin-1-yl-cyclobutyl)-methyl]-4-trifluoromethyl-benzamide] yielded an IC50 of 0.00847 µM.
